Values quoted from earlier work, collected in patent US20060200870A1, “Methods of treating muscular dystrophy” (priority 2004, published 2006).
“Also recorded” adds a separate entry of the source.

Assays:
[1] = test system: derangements or deficiencies in AGAT activity; conditions: oral creatine
humans with DMD = conditions: humans (males) with DMD
patients with DMD = conditions: 0.75 mg/kg in intermittent regimens

Row | SMILES | success in overcoming derangements or deficiencies in AGAT activity [1] | benefit of oral creatine supplementation (mdx mice) | benefit / therapeutic effect of oral creatine supplementation (humans with DMD) | independent ambulation (patients with DMD; some patients) | adverse side-effects (patients with DMD; weight-gain, osteopenia, hirsutism, cushingoid facies, behavioral and endocrinology-related issues)
1 | CN(CC(=O)O)C(=N)N [creatine] | partially successful | some benefits | no such clear benefit; also recorded: has not been shown to have a significant therapeutic effect | – | –
2 | C[C@]12C=CC(=O)C=C1CC[C@@H]1[C@@H]2C(=O)C[C@@]2(C)[C@H]1CC[C@]2(O)C(=O)CO [prednisone] | – | – | – | can help prolong independent ambulation | significant adverse side-effects
